Results as given in publication PMC8693680 (RSC Advances, 2021).

Target: Bovine serum albumin (BSA) (Bos taurus, UniProt P02769)
Test: Trp fluorescence quenching
Format: binding
Conditions: 5 μM BSA, 0-15 μM dye, 10 mM HEPES pH 7.4, 298 K; double-log; n = 0.35

Sequence of Bovine serum albumin (BSA) (P02769 25-607): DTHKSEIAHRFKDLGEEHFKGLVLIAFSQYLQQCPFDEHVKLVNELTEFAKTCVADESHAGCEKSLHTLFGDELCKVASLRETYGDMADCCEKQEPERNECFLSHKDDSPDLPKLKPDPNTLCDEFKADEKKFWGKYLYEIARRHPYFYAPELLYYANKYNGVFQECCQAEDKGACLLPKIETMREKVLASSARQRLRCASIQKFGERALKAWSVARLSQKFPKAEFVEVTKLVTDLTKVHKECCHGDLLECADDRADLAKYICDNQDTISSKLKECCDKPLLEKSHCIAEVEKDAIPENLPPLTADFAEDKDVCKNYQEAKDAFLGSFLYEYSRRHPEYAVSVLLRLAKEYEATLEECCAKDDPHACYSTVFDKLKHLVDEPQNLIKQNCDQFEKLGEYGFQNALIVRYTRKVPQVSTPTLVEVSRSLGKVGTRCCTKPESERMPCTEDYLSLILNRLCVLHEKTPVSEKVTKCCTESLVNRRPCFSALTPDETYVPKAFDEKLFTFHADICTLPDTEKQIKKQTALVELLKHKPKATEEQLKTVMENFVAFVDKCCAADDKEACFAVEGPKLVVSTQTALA

c1ccc2c(c1)Nc1ccccc1S2 [PTZ]
Binding constant, K′: 6190 M⁻¹
